# Experimental data: PubChem BioAssay (NCI)
# Where “and” joins values, the source holds several entries; their conditions need not be identical. Equal entries are not always repeated.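 Test compounds were applied to cells in 96-well plates for 48 hours at 5 doses. GI50: concentration for 50% inhibition of growth. At the TGI there is no net growth.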
# Key:
# Test in all cases: NCI-60 cell line screen, 48 h
# A549 NSCLC = system: A549 NSCLC
# HT29 colon = system: HT29 colon
# K-562 leukemia = system: K-562 leukemia
# NCI-H460 lung = system: NCI-H460 lung
# SK-MEL-5 melanoma = system: SK-MEL-5 melanoma
# UACC-62 melanoma = system: UACC-62 melanoma
# HOP-62 NSCLC = system: HOP-62 NSCLC
# NCI-H226 lung = system: NCI-H226 lung
# DU-145 prostate = system: DU-145 prostate
# MCF7 breast = system: MCF7 breast
SMILES,TGI (A549 NSCLC),TGI (HT29 colon),TGI (K-562 leukemia) [µM],TGI (NCI-H460 lung),TGI (SK-MEL-5 melanoma) [µM],TGI (UACC-62 melanoma) [µM],TGI (HOP-62 NSCLC),TGI (NCI-H226 lung) [µM],GI50 (DU-145 prostate) [µM],TGI (DU-145 prostate) [µM],GI50 (HOP-62 NSCLC) [µM],GI50 (HT29 colon) [µM],GI50 (K-562 leukemia) [µM],GI50 (MCF7 breast) [µM],TGI (MCF7 breast) [µM],GI50 (NCI-H226 lung) [µM],GI50 (SK-MEL-5 melanoma) [µM],GI50 (UACC-62 melanoma) [µM],GI50 (A549 NSCLC) [µM],GI50 (NCI-H460 lung) [µM]
N/N=C1\c2ccccc2C2/C(=N\N)c3ccccc3C12 (configuration not stated),> 100 µM,> 100 µM,> 100,> 100 µM,> 100,> 100,,,,,,,,,,,,,,
CCOc1ccccc1NC(=O)CCc1nnc2s/c(=C\CCc3ccccc3)c(=O)n12,> 100 µM,> 100 µM,> 100,> 100 µM,> 100,> 100,> 100 µM,> 100,,,,,,,,,,,,
COC(=O)c1c2c(c(C)[n+]([O-])c1C)C(=O)C=C(NCc1cccc(OC)c1)C2=O,,1.54 µM,6.51,,0.334,1.07,3.39 µM,4.48,1.06,2.29,1.58,0.37,0.37,0.258,0.826,1.72,0.171,0.25,,
Cc1ccc(NS(=O)(=O)c2cc(C(C)(C)C)ccc2OCCOCCOCCOc2ccc(C(C)(C)C)cc2S(=O)(=O)Nc2ccc(C)cc2)cc1,> 100 µM,> 100 µM,> 100,> 100 µM,> 100,> 100,> 100 µM,> 100,,,,,,,,,,,,
CC(=O)OCC1OC(OC2CC3C(C)(C)C(OC(C)=O)CC[C@]3(C)C3CCC45CC4(CC[C@H]5C(C)CC(O)C4OC4(C)C)[C@]23C)C(O)C(O)C1O (some centres not stated),8.37 µM and 15.2 µM,1.73 µM and 3.38 µM,2.22,5.75 µM and 9.38 µM,5.79,,12.6 µM and 5.37 µM,11.6,,,2.39,1.86,,,,,,> 60,4.26,3.21
O=C([O-])c1ccc2c(c1)-c1nc-2nc2[n-]c(nc3nc(nc4[n-]c(n1)c1ccc(C(=O)[O-])cc41)-c1cc(C(=O)[O-])ccc1-3)c1ccc(C(=O)[O-])cc21.[Fe+2],> 50 µM,> 50 µM,> 33.7,> 50 µM,> 50,> 50,> 50 µM,> 50,,,> 50,> 50,> 23,,,> 50,> 50,> 50,> 50,> 50
CC1CCCC(C(O)CC2CC(=O)N(c3ccccc3)C(=O)C2)C1=O (configuration not stated),> 100 µM,> 100 µM,> 100,> 100 µM,,> 100,> 100 µM,> 100,,,,,,,,,,,,
CN(C)c1ccc(/C=C2\CNC/C(=C\c3ccc(N(C)C)cc3)C2=O)cc1,56.5 µM,24.1 µM,> 100,29.4 µM,> 100,> 100,> 100 µM,> 100,,,,,,,,,,,,
N#C/C(=C/c1cccnc1)C(=O)c1ccccc1,> 100 µM,> 100 µM,> 100,> 100 µM,> 100,> 100,> 100 µM,> 100,,,,,,,,,,,,
COc1ncc(-c2nc3c(n2C(C)C)[C@H](c2ccc(Cl)cc2)N(c2cc(Cl)cn(C)c2=O)C3=O)c(OC)n1,> 100 µM,> 100 µM,,> 100 µM,24.1,28.4,> 100 µM,80.4,94.8,> 100,90,41.7,,17.3,> 100,15.1,11.7,5.95,17.9,22.8
COc1ccc(NC(=O)C(=O)NNC(=O)c2sc(NNC(C)=O)nc2C)c([N+](=O)[O-])c1,> 100 µM,> 100 µM,> 100,> 100 µM,> 100,> 100,> 100 µM,> 100,,,,,,,,,,,,
CCC(C(=O)[O-])C(=O)[O-].CCC(C(=O)[O-])C(=O)[O-].N.N.NCCCCCN.[Pt+4].[Pt+4],> 100 µM,> 100 µM,> 100,> 100 µM,> 100,> 100,> 100 µM,94.7,,,> 100,> 100,> 100,,,23.4,> 100,38.3,> 100,21.3
NC(=O)c1csc(C2C=CC(CO)O2)n1 (configuration not stated),> 100 µM,> 100 µM,> 100,> 100 µM,,> 100,> 100 µM,> 100,,,,,,,,,,,,
CCCCn1c2c(c3ccccc3c1=O)C(=O)c1ccccc1-2,> 100 µM,> 100 µM,> 100,,> 100,> 100,> 100 µM,> 100,,> 100,,,,,> 100,,,,,
